In one assay the target is BCLXL (Homo sapiens, UniProt Q07817, V10N/V9A). Kind of assay: AlphaLISA assay (BIM peptide displacement). In kind it is binding. The note with it: 20 pM protein, 1 nM peptide. As for the experimental part: AlphaLISA assay measures an increase in alpha signal upon binding biotinylated GST(1-218)-(FACTOR_XA)-hs ? (2-209)(SEQ ID:02—GST UniProtKB® primary accession number P08515 and BCLXL UniProtKB® primary accession number Q07817-1) coupled to a Streptavidin labeled Alpha donor bead to N-terminally labeled peptide derived from BIM (Fluorescein-betaAla-Ahx-SEQID:05, wherein SEQ ID:05 is […]) coupled to an Anti-FTIC AlphaLISA acceptor bead.
Chain of BCLXL (Q07817 with tags, fused parts or gaps V9A/V10N): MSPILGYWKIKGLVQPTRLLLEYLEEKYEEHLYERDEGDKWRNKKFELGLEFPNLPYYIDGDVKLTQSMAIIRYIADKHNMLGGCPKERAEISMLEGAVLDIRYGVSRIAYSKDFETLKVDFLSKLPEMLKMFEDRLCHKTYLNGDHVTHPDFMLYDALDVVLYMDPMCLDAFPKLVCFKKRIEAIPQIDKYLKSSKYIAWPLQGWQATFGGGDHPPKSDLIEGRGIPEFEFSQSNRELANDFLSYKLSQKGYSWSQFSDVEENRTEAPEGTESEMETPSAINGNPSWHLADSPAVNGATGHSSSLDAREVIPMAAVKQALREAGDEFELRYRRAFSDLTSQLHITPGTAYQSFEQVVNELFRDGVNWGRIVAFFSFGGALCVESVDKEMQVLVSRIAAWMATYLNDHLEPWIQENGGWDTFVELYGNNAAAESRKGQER
GST(1-218)(FACTOR_XA)-hs ? (2-209) was biotinylated in 50 mM phosphate buffer using a 20 fold excess of EZ Link NHS-LC-Biotin (thermoFisher catalogue number 21336) overnight at 4° C.
The addition of a compound which binds competitively to the same site as the peptide will result in an decrease in the Alpha signal of the available donor bead-protein-peptide-acceptor bead complex due to displacement of the peptide.
An 11-point serial dilution of each compound was prepared in DMSO, the final buffer conditions were 10 mM 4-(2-hydroxyethyl)-1-piperazineethanesulfonic acid [HEPES], 150 mM NaCl, 0.05% Tween 20, pH 7.4 and 4% DMSO. The final protein concentration in the assay was 20 pM with the peptide present at 1 nM). Alpha beads were used at a final concentration of 5 ug/mL. The experiments were incubated for overnight at 23° C. after acceptor bead addition. Finally the donor bead is added and incubated for 2 hours at 23° C. before Alpha signal measured on a Biotek Synergy2 plate reader (Excitation 680 nm, emission 615 nm).

For a further assay, the target named is T1, Bcl-xL protein (Homo sapiens, UniProt Q07817, N197C).
T1 construct: (2-197)[N197C]; His-His (two His8 stretches joined by a Gly/Ala/Ser/Thr linker)
T1 sequence (Q07817 2-197 N197C): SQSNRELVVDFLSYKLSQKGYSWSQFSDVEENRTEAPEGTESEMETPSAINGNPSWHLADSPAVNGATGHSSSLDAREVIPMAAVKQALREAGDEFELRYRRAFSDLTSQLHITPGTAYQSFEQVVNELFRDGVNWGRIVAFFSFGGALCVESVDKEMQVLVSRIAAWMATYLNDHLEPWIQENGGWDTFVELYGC
Kind of assay: Fluorescence quenching assay (PUMA peptide displacement). The assay is classed as binding. Particulars: 1 nM protein, 400 nM peptide, 2 hours at 23° C.; KI determined from IC50. Summed up:
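Compounds were tested as an 11-point series in pH 7.4 HEPES/NaCl/Tween buffer with 5% DMSO, 2 h at 23 °C. Cy5-tagged Bcl-xL(2-197, N197C) at 1 nM and quencher-tagged PUMA peptide at 400 nM were used. Competitive binders restore fluorescence (620/680 nm), and IC50 values were converted to KI.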

The test system of a further assay is H146 cells. Kind of assay: H146 cell viability, MTT assay. The note with it: Homo sapiens, NCI-H146, 48 h, 48 h exposure. In kind it is cell-based. An outline of the steps: (§1)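 Viability read by MTT reduction (OD 540 nm after overnight SDS/HCl lysis) after 48 h compound treatment of cells in RPMI 1640/10% FBS. Triplicates at nine concentrations, 3.16-fold apart; four-parameter curve fitting yields IC50.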
In general terms: Tetrazolium assays rely on reduction of a dye to a coloured formazan, in cell work by metabolically active cells.

For the next assay, the system named is MOLT-4 cells. Kind of assay: MOLT-4 cell viability, MTT assay. In kind it is cell-based. The note with it: Homo sapiens, MOLT-4, 48 h, 48 h exposure. Summed up:
as §1

The structures appear in SMILES notation.

By IC50 is commonly meant the concentration that gives 50% inhibition. As usually defined, the Ki is a measure of affinity in units of concentration, obtained from inhibition or displacement.

Consider `Cc1cc(N(CCCCO)c2nc(C(=O)O)cs2)nnc1Nc1nc2ccccc2s1` [Example 110, 2-[[6-(1,3-Benzothiazol-2-ylamino)-5-methyl-pyridazin-3-yl]-(4-hydroxybutyl)amino]thiazole-4-carboxylic acid], for which the half-inhibitory concentration (IC50) on BCLXL was found to be 0.48 nM.
Still for that read-out and setting: the value for `COC(CO)CN(c1cc(C)c(Nc2nc3ccccc3s2)nn1)c1nc(C(=O)O)cs1` (stereo not drawn) [Example 111, 2-[[6-(1,3-Benzothiazol-2-ylamino)-5-methyl-pyridazin-3-yl]-(3-hydroxy-2-methoxy-propyl)amino]thiazole-4-carboxylic acid] was 27 nM; that for `COc1ccc(CN(C)CC#Cc2ccc(OCCCc3sc(N(CCC(O)CO)c4cc(C)c(Nc5nc6ccccc6s5)nn4)nc3C(=O)O)c(F)c2)cc1` (stereo not drawn) [Example 121, 2-[[6-(1,3-Benzothiazol-2-ylamino)-5-methyl-pyridazin-3-yl]-(3,4-dihydroxybutyl)amino]-5-[3-[2-fluoro-4-[3-[(4-methoxyphenyl)methyl-methyl-amino]prop-1-ynyl]phenoxy]propyl]thiazole-4-carboxylic acid] was 0.058 nM; that for `Cc1cc(N(CCCCCO)c2nc(C(=O)O)cs2)nnc1Nc1nc2ccccc2s1` [Example 125, 2-[[6-(1,3-Benzothiazol-2-ylamino)-5-methyl-pyridazin-3-yl]-(5-hydroxypentyl)amino]thiazole-4-carboxylic acid] was 8.6 nM.
Same read-out and setting: for `Cc1cc(N(CCCO)c2nc(C(=O)O)c(CCCOc3ccc(C#CCN(C)C)cc3F)s2)nnc1Nc1nc2ccccc2s1` [Example 126, 2-[[6-(1,3-Benzothiazol-2-ylamino)-5-methyl-pyridazin-3-yl]-(3-hydroxypropyl)amino]-5-[3-[4-[3-(dimethylamino)prop-1-ynyl]-2-fluoro-phenoxy]propyl]thiazole-4-carboxylic acid] the value was 0.023 nM.
On the same count and under the same terms, for `Cc1cc(N(CCCC(O)CN2CCOCC2)c2nc(C(=O)O)cs2)nnc1Nc1nc2ccccc2s1` (stereo not drawn) [Example 131, 2-[[6-(1,3-Benzothiazol-2-ylamino)-5-methyl-pyridazin-3-yl]-(4-hydroxy-5-morpholino-pentyl)amino]thiazole-4-carboxylic acid] the value was 2.7 nM.
Consider `Cc1cc(N(CCCC(O)C[N+]2(C)CCN(C)CC2)c2nc(C(=O)[O-])c(CCCOc3ccc(C#CCN(C)C)cc3F)s2)nnc1Nc1nc2ccccc2s1` (stereo not drawn) [Example 221, 2-[[6-(1,3-Benzothiazol-2-ylamino)-5-methyl-pyridazin-3-yl]-[5-(1,4-dimethylpiperazin-1-ium-1-yl)-4-hydroxy-pentyl]amino]-5-[3-[4-[3-(dimethylamino)prop-1-ynyl]-2-fluoro-phenoxy]propyl]thiazole-4-carboxylate], for which the Ki at Bcl-xL protein came out at 0.0017 nM. The half-inhibitory concentration (IC50) in the assay on H146 cells turned out to be 94.4 nM; with MOLT-4 cells it was 29.5 nM.
For `Cc1cc(N(C)c2nc(C(=O)[O-])c(CCCOc3ccc(C#CCNCC[N+](C)(C)C)cc3F)s2)nnc1Nc1nc2ccccc2s1` [Example 222, 2-[3-[4-[3-[2-[[6-(1,3-Benzothiazol-2-ylamino)-5-methyl-pyridazin-3-yl]-methyl-amino]-4-carboxy-thiazol-5-yl]propoxy]-3-fluoro-phenyl]prop-2-ynylamino]ethyl-trimethyl-ammonium], at Bcl-xL protein, the inhibitory constant (Ki) came out at 0.0014 nM. Moreover, the IC50 with H146 cells worked out at 32.4 nM; in the assay on MOLT-4 cells, 61 nM.
For `Cc1cc(N(C)c2nc(C(=O)O)c(CCCOc3ccc(C#CCNCCN(C)C)cc3F)s2)nnc1Nc1nc2ccccc2s1` [Example 223, 2-[[6-(1,3-Benzothiazol-2-ylamino)-5-methyl-pyridazin-3-yl]-methyl-amino]-5-[3-[4-[3-[2-(dimethylamino)ethylamino]prop-1-ynyl]-2-fluoro-phenoxy]propyl]thiazole-4-carboxylic acid] the same measures were 0.0018 nM, 7.46 nM and 3.13 nM.
For `CNCC#Cc1ccc(OCCCc2sc(N(CCCCCC[N+](C)(C)C)c3cc(C)c(Nc4nc5ccccc5s4)nn3)nc2C(=O)[O-])c(F)c1` [Example 224, 2-[[6-(1,3-Benzothiazol-2-ylamino)-5-methyl-pyridazin-3-yl]-[6-(trimethylammonio)hexyl]amino]-5-[3-[2-fluoro-4-[3-(methylamino)prop-1-ynyl]phenoxy]propyl]thiazole-4-carboxylate] the same measures were 0.002 nM, 1160 nM and 2180 nM.
For `Cc1cc(N(CCCCC[N+](C)(C)CCCO)c2nc(C(=O)[O-])c(CCCOc3ccc(C#CCN(C)C)cc3F)s2)nnc1Nc1nc2ccccc2s1` [Example 225, 2-[[6-(1,3-Benzothiazol-2-ylamino)-5-methyl-pyridazin-3-yl]-[5-[3-hydroxypropyl(dimethyl)ammonio]pentyl]amino]-5-[3-[4-[3-(dimethylamino)prop-1-ynyl]-2-fluoro-phenoxy]propyl]thiazole-4-carboxylate] the same measures were 0.0035 nM, 351 nM and 1080 nM.
In the case of `CNCC#Cc1ccc(OCCCc2sc(N(CCCCC[N+](C)(C)CCO)c3cc(C)c(Nc4nc5ccccc5s4)nn3)nc2C(=O)[O-])c(F)c1` [Example 229, 2-[[6-(1,3-Benzothiazol-2-ylamino)-5-methyl-pyridazin-3-yl]-[5-[2-hydroxyethyl(dimethyl)ammonio]pentyl]amino]-5-[3-[2-fluoro-4-[3-(methylamino)prop-1-ynyl]phenoxy]propyl]thiazole-4-carboxylate], the inhibition constant Ki at Bcl-xL protein turned out to be 0.0014 nM. Moreover, the IC50 with H146 cells worked out at 437 nM; in the assay with MOLT-4 cells, 1640 nM.
For `CNCC#Cc1ccc(OCCCc2sc(N(CCCCC[N+](C)(C)CCCO)c3cc(C)c(Nc4nc5ccccc5s4)nn3)nc2C(=O)[O-])c(F)c1` [Example 230, 2-[[6-(1,3-Benzothiazol-2-ylamino)-5-methyl-pyridazin-3-yl]-[5-[3-hydroxypropyl(dimethyl)ammonio]pentyl]amino]-5-[3-[2-fluoro-4-[3-(methylamino)prop-1-ynyl]phenoxy]propyl]thiazole-4-carboxylate] the same measures were 0.0014 nM, 1380 nM and 2180 nM.
On to `CNCC#Cc1ccc(OCCCc2sc(N(CCCCC[N+](C)(C)CC(=O)O)c3cc(C)c(Nc4nc5ccccc5s4)nn3)nc2C(=O)[O-])c(F)c1` [Example 231, 2-[[6-(1,3-Benzothiazol-2-ylamino)-5-methyl-pyridazin-3-yl]-[5-[carboxymethyl(dimethyl)ammonio]pentyl]amino]-5-[3-[2-fluoro-4-[3-(methylamino)prop-1-ynyl]phenoxy]propyl]thiazole-4-carboxylate], for which the inhibitory constant (Ki) on Bcl-xL protein turned out to be 0.0013 nM. Besides, the values for the IC50 in the assay with H146 cells and in the assay with MOLT-4 cells were 1610 nM and 1190 nM, respectively.
For `Cc1cc(N(C)c2nc(C(=O)O)c(CCCOc3ccc(C#CCN(C)C)cc3)s2)nnc1Nc1nc2ccccc2s1` [Example 233, 2-[[6-(1,3-Benzothiazol-2-ylamino)-5-methyl-pyridazin-3-yl]-methyl-amino]-5-[3-[4-[3-(dimethylamino)prop-1-ynyl]phenoxy]propyl]thiazole-4-carboxylic acid] the same measures were 0.0043 nM, 2.55 nM and 0.879 nM.
For `Cc1cc(N(C)c2nc(C(=O)O)c(CCCOc3ccc(C45CC(CN(C)C)(C4)C5)cc3)s2)nnc1Nc1nc2ccccc2s1` [Example 234, 2-[[6-(1,3-Benzothiazol-2-ylamino)-5-methyl-pyridazin-3-yl]-methyl-amino]-5-[3-[4-[1-[(dimethylamino)methyl]-3-bicyclo[1.1.1]pentanyl]phenoxy]propyl]thiazole-4-carboxylic acid] the same measures were 0.0016 nM, 15 nM and 3.8 nM.
For `CNCC#Cc1ccc(OCCCc2sc(N(CCC[N+](C)(C)CCCS(=O)(=O)[O-])c3cc(C)c(Nc4nc5ccccc5s4)nn3)nc2C(=O)O)c(F)c1` [Example 235, 3-[3-[[6-(1,3-Benzothiazol-2-ylamino)-5-methyl-pyridazin-3-yl]-[4-carboxy-5-[3-[2-fluoro-4-[3-(methylamino)prop-1-ynyl]phenoxy]propyl]thiazol-2-yl]amino]propyl-dimethyl-ammonio]propane-1-sulfonate] the same measures were 0.0011 nM, 413 nM and 413 nM.
